Earlier results as cited in patent publication US20060287342A1, “Triazolopyrimidine heterocycles as cannabinoid receptor modulators” (priority 2005, published 2006).

What was measured:
[1] = chronic administration for two weeks
human subjects = details: 16 week trial period

SMILES | body weight [1] | body weight (human subjects)
Cc1c(C(=O)NN2CCCCC2)nn(-c2ccc(Cl)cc2Cl)c1-c1ccc(I)cc1 [AM-251] | substantial body weight reduction | –
Cc1c(C(=O)NN2CCCCC2)nn(-c2ccc(Cl)cc2Cl)c1-c1ccc(Cl)cc1 [SR-141716] | – | dose-dependently reduced body weight
